Consider 25 compounds from patent publication US20240398757A1 (COCRYSTAL PHARMA, INC., priority 2022, published 2024).

As usually defined, the IC50 is the concentration that inhibits the measured activity by half. Low readings indicate inhibition by little substance, high ones a need for much substance.

Structures are written as SMILES.

This assay concerns the target T1, SARS2 protease (Severe acute respiratory syndrome coronavirus 2, UniProt P0DTD1).
T1 construct: SARS2 protease was added to a final concentration of 30 nM
The experiment in a line: SARS-CoV-2 protease inhibition assay (SARS2 FRET protease assay). It is filed as biochemical. The note with it: IC50 (μM), SARS2 protease 30 nM, peptide substrate 1.3 μM, 120 minutes at 37° C., compounds 20 μM to 0.075 nM.
In turn, `O=C(N[C@@H](CC1CCCCC1)C(=O)N[C@@H](C[C@@H]1CCNC1=O)C(O)S(=O)(=O)O)O[C@H](c1ccccc1)C(F)(F)c1cccc(F)c1` (stereo partly drawn) [Compound A233, sodium (2S)-2-((S)-3-cyclohexyl-2-((((R)-2,2-difluoro-2-(3-fluorophenyl)-1-phenylethoxy)carbonyl)amino)propanamido)-1-hydroxy-3-((S)-2-oxopyrrolidin-3-yl)propane-1-sulfonate] registered an IC50 of 0.025 µM. In other words, the double-digit nanomolar range. `CCC[C@H](NC(=O)OC(c1ccccc1)C(F)(F)c1cccc(F)c1)C(=O)N[C@@H](C[C@@H]1CCNC1=O)C(=O)C(=O)NC1CC1` (stereo partly shown) [Compound A100] registered an IC50 of 0.25 µM. With `CCCC[C@H](NC(=O)O[C@@H](c1ccc(F)cc1)C(F)(F)c1cccc(Cl)c1)C(=O)N[C@@H](C[C@@H]1CCNC1=O)C(=O)C(=O)NC1CC1` [Compound A199], the IC50 was determined as 0.494 µM. This IC50 is about 2-fold higher than that of the compound before. In the case of `O=C(N[C@@H](CC1CCCCC1)C(=O)N[C@@H](C[C@@H]1CCNC1=O)C(=O)c1nc2ccccc2o1)OC(c1ccccc1)C(F)(F)c1cccc(Cl)c1` (stereo partly drawn) [Compound A278, 2-(3-chlorophenyl)-2,2-difluoro-1-phenylethyl ((S)-1-(((S)-1-(benzo[d]oxazol-2-yl)-1-oxo-3-((S)-2-oxopyrrolidin-3-yl)propan-2-yl)amino)-3-cyclohexyl-1-oxopropan-2-yl)carbamate] it was 0.249 µM; in that of `CCCC[C@H](NC(=O)OC(c1ccccc1)C(F)(F)c1cccc(Cl)c1)C(=O)N[C@@H](C[C@@H]1CCNC1=O)C(=O)c1nc2ccccc2s1` (stereo partly drawn) [Compound A238, 2-(3-chlorophenyl)-2,2-difluoro-1-phenylethyl ((S)-1-(((S)-1-(benzo[d]thiazol-2-yl)-1-oxo-3-((S)-2-oxopyrrolidin-3-yl)propan-2-yl)amino)-1-oxohexan-2-yl)carbamate], 1.16 µM.

In turn, `CCC(CC)(c1cccc(Cl)c1)C(OC(=O)N[C@@H](CC(C)C)C(=O)N[C@@H](C[C@@H]1CCNC1=O)C(=O)C(=O)NC1CC1)c1ccc(F)cc1` (stereo partly shown) [Compound A14] yielded an IC50 of 0.09 µM. This IC50 lies about 13-fold lower than the previous one.

`CC(C)C[C@H](NC(=O)O[C@H](c1ccc(F)cc1)C(F)(F)c1cccc(Cl)c1)C(=O)N[C@@H](C[C@@H]1CCNC1=O)C(=O)C(=O)NC1CC1` [Compound A9]: the IC50 stood at 0.0001 µM. In the case of `CC(C)C[C@H](NC(=O)O[C@H](c1cccc(Cl)c1)C1(c2cccc(Cl)c2)CC1)C(=O)N[C@@H](C[C@@H]1CCNC1=O)C(=O)C(=O)NC1CC1` [Compound A30] it was 0.1 µM; in that of `CCCC[C@H](NC(=O)OC(c1cccc(F)c1)C1(c2cccc(Cl)c2)CC1)C(=O)N[C@@H](C[C@@H]1CCNC1=O)C(=O)C(=O)NC1CC1` (stereo partly shown) [Compound A105], 0.51 µM; in that of `CCCC[C@H](NC(=O)O[C@@H](c1ccccc1)C(F)(F)c1cccc(Cl)c1)C(=O)N[C@@H](C[C@@H]1CCNC1=O)C(=O)C(=O)NC1CC1` [Compound A115], 0.805 µM. In the case of `CC(C)C[C@H](NC(=O)O[C@H](c1ccc(F)cc1)C(F)(F)c1cccc(Cl)c1)C(=O)N[C@H](C=O)C[C@@H]1CCNC1=O` [Compound A149] it was 0.0001 µM. The figure for `CCCC[C@H](NC(=O)O[C@@H](c1ccccc1)C(F)(F)c1cccc(F)c1)C(=O)N[C@H](C=O)C[C@@H]1CCNC1=O` [Compound A143] is 0.004 µM; for `CC(C)C[C@H](NC(=O)O[C@H](c1ccccc1)C(F)(F)c1cccc(Cl)c1)C(=O)N[C@H](C=O)C[C@@H]1CCNC1=O` [Compound A79] it is 0.013 µM; for `CC(C)C[C@H](NC(=O)O[C@@H](c1ccccc1)C(C)(C)c1cccc(Cl)c1)C(=O)N[C@@H](C[C@@H]1CCNC1=O)C(=O)C(=O)NC1CC1` [Compound A4] it is 0.8 µM.

`CC(C)C[C@H](NC(=O)OC(c1ccccc1)C1(c2cccc(Cl)c2)CCCCC1)C(=O)N[C@@H](C[C@@H]1CCNC1=O)C(=O)C(=O)NC1CC1` (stereo partly shown) [Compound A3] came in with an IC50 of 0.52 µM. This IC50 is about 1.5-fold lower than that of the compound before.

For `CCCCCOC(=O)N[C@@H](CC(C)C)C(=O)N[C@@H](C[C@@H]1CCNC1=O)C(=O)C(=O)NC1CCCCC1` [Compound A24], the IC50 came out at 21.4 µM. In the case of `O=C[C@H](C[C@@H]1CCNC1=O)NC(=O)[C@H](CC1CCC1)NC(=O)OC(c1ccccc1)C(F)(F)c1cccc(Cl)c1` (stereo partly shown) [Compound A102] it was 0.0001 µM; in that of `CCC(CC)(c1cccc(Cl)c1)C(OC(=O)N[C@@H](CC(C)C)C(=O)N[C@@H](C[C@@H]1CCNC1=O)C(=O)C(=O)NC1CC1)c1ccc(Cl)cc1` (stereo partly shown) [Compound A44], 0.74 µM; in that of `CCCC[C@H](NC(=O)O[C@@H](c1cccnc1)C(F)(F)c1cccc(Cl)c1)C(=O)N[C@@H](C[C@@H]1CCNC1=O)C(=O)C(=O)NC1CC1` [Compound A301], 0.0362 µM.

Take `CCNC(=O)C(=O)[C@H](C[C@@H]1CCNC1=O)NC(=O)[C@H](CC1CC1)NC(=O)OC(c1ccccc1)C(F)(F)c1cccc(Cl)c1` (stereo partly shown) [Compound A131]: the IC50 is 0.0002 µM. In the case of `CCCC(=O)OC([C@H](C[C@@H]1CCNC1=O)NC(=O)[C@H](CC1CCCCC1)NC(=O)OC(c1ccccc1)C(F)(F)c1cccc(Cl)c1)S(=O)(=O)O` (stereo partly shown) [Compound A113] it was 0.241 µM.

Turning to `O=C(N[C@@H](CC1CC1)C(=O)N[C@@H](C[C@@H]1CCNC1=O)C(=O)C(=O)NC1CC1)OC(c1ccccc1)C(F)(F)c1cccc(Cl)c1` (stereo partly shown) [Compound A94], 0.0123 µM corresponded to half-maximal inhibition (IC50).

Compound `CCCC(=O)OC([C@H](C[C@@H]1CCNC1=O)NC(=O)[C@H](CC1CCCCC1)NC(=O)O[C@@H](c1ccccc1)C(F)(F)c1cccc(Cl)c1)S(=O)(=O)O` (stereo partly drawn) [Compound A242, sodium (2S,6S,9S)-1-(3-chlorophenyl)-6-(cyclohexylmethyl)-1,1-difluoro-4,7,12-trioxo-9-(((S)-2-oxopyrrolidin-3-yl)methyl)-2-phenyl-3,11-dioxa-5,8-diazapentadecane-10-sulfonate] came in with an IC50 of 1.2 µM. This IC50 is about 98-fold higher than that of the compound before. The figure for `CCCC[C@H](NC(=O)O[C@@H](c1ccccc1)C(F)(F)c1cccc(Cl)c1)C(=O)N[C@@H](C[C@@H]1CCNC1=O)C(O)S(=O)(=O)O` (stereo partly shown) [Compound A121] is 0.018 µM; for `CCNC(=O)C(=O)[C@H](C[C@@H]1CCNC1=O)NC(=O)[C@H](CC1(CC)CCC1)NC(=O)O[C@@H](c1ccccc1)C(F)(F)c1cccc(Cl)c1` [Compound A323] it is 3.84 µM.
